Reference: US12187761B2, “Compounds, compositions, and methods for the treatment of disease” (F-star Therapeutics, Inc., priority 2017, dated 2025)

Assays:
NF-κβ = experiment: Induction of NF-κβ in THP1 dual cells (SEAP reporter); assay type: cell-based; settings: 20 h incubation, SEAP levels at 620-655 nm
Protocol: (§1) Example 6. In Vitro Induction of IRF and NF-κβ in THP1 Cells Table 2
(§2) THP1 dual cells grown in complete media were treated with various concentrations of a compound of the present disclosure or DMSO control. Dual cells carry both secreted embryonic alkaline phosphatase (SEAP) reporter gene under the control of an IFN-β minimal promoter fused to five copies of the NF-kB consensus transcriptional response element to measure NF-kB activity and Lucia reporter gene under the control of an ISG54 minimal promoter to measure IRF activity. After 20 h incubation, IRF activity was assessed using QUANTI-luc to measure levels of Lucia and NF-kB activity was determined by measure SEAP levels at 620-655 nm. % induction was calculated from fold change in luminescence/absorbance compared to DMSO treated sample. […] EC50 values were generated by curve fit in Xlfit.
(§3) Cells grown in complete media were treated with various concentrations of a compound of the disclosure or DMSO control. Dual cells carry both secreted embryonic alkaline phosphatase (SEAP) reporter gene under the control of an IFN-β minimal promoter fused to five copies of the NF-kB consensus transcriptional response element to measure NF-kB activity and Lucia reporter gene under the control of an ISG54 minimal promoter to measure IRF activity. After 20 h incubation, IRF activity was assessed using QUANTI-luc to measure levels of Lucia and NF-kB activity was determined by measure SEAP levels at 620-655 nm. % induction was calculated from fold change in luminescence/absorbance compared to DMSO treated sample. EC50 values are generated by curve fit in Xlfit.

IRF = experiment: Induction of IRF in THP1 dual cells (ISG54 promoter Lucia reporter); assay type: cell-based; settings: 20 h incubation, Lucia reporter (QUANTI-luc)
Protocol: as §1, §2, §3

| SMILES | EC50 (NF-κβ) [µM] | EC50 (IRF) [µM] |
| --- | --- | --- |
| C=CCCC(=O)NCCCCCCCCCCCCOc1ccc(C(=O)Oc2ccc(CSP3(=O)OC[C@H]4O[C@@H](n5cnc6c(N)ncnc65)[C@H](F)[C@@H]4OP(=O)(O)OC[C@H]4O[C@@H](n5ccc(=O)[nH]c5=O)[C@H](F)[C@@H]4O3)cc2)cc1 (some centres unmarked) [Compound 8] | > 2 | 1 to 2 |
| Nc1ncnc2c1ncn2[C@@H]1O[C@@H]2COP(=O)(SCc3ccc(OC(=O)c4ccc(OCCCCCCCCCCO)cc4)cc3)O[C@H]3[C@@H](F)[C@H](n4ccc(=O)[nH]c4=O)O[C@@H]3COP(=O)(O)O[C@H]2[C@H]1F (some centres unmarked) [Compound 2] | 0.5 to 1 | < 0.05 |
| NCCCOCCOCCOCCOc1ccc(C(=O)Oc2ccc(CSP3(=O)OC[C@H]4O[C@@H](n5cnc6c(N)ncnc65)[C@H](F)[C@@H]4OP(=O)(O)OC[C@H]4O[C@@H](n5ccc(=O)[nH]c5=O)[C@H](F)[C@@H]4O3)cc2)cc1 (some centres unmarked) [Compound 7] | 1 to 2 | 0.05 to 0.5 |
| NCCCCCCCCCCOc1ccc(C(=O)Oc2ccc(CSP3(=O)OC[C@H]4O[C@@H](n5cnc6c(N)ncnc65)[C@H](F)[C@@H]4OP(=O)(O)OC[C@H]4O[C@@H](n5ccc(=O)[nH]c5=O)[C@H](F)[C@@H]4O3)cc2)cc1 (some centres unmarked) [Compound 1] | 0.5 to 1 | < 0.05 |
